According to patent US8697739B2, “Bicyclic acetyl-CoA carboxylase inhibitors and uses thereof” (Novartis AG, priority 2010, dated 2014):
pIC50: −log10 of the molar value.

Molecular target: T1, human acetyl-CoA carboxylase 2 (ACC2) (Homo sapiens, UniProt O00763)
T1 construct: The cDNA encoding amino acids 144 to 2458 of human acetyl-CoA carboxylase 2; made in house; host or cells: Sf9 insect cells (baculovirus, pFastBac1)
Test: Acetyl-CoA carboxylase enzyme assay (malonyl-CoA formation by LC/MS/MS)
Type: biochemical
Settings: recombinant human ACC2 (aa 144-2458); read-out: IC50 ACC2
Source text: The cDNA encoding amino acids 144 to 2458 of human acetyl-CoA carboxylase 2 (ACC2, GenBank Accession #NM_001093) was cloned into the SalI and NotI sites of pFastBac1 (Invitrogen; Carlsbad, Calif.). The resulting plasmid was used to generate a recombinant ACC2 baculovirus that was amplified and titered according to the protocols in the Bac-to-Bac baculovirus expression system manual (Invitrogen). The titered virus was used to infect Sf9 cells grown in Ex-Cell 420 serum-free medium (JRH Biosciences; Lenexa, Kans.). At 48 hours post-infection, the cells were harvested and stored at −80° C. until purification. ACC2 was purified using ammonium sulfate precipitation and anion exchange chromatography.
The enzymatic assay was run as follows: 30 μL of reaction buffer (100 mM HEPES pH 7.5, 20 mM MgCl2, 20 mM potassium citrate, 2 mM DTT) was added to a 384-well microtiter plate followed by 2 μL of the test compound (or 100% DMSO control). ACC2 protein (10 μL of a 50 nM working solution) was added to plate, which was incubated at room temperature for 15 minutes. A 30 μL addition of substrate solution (50 μM acetyl-CoA, 120 μM ATP, 2 mM KHCO3) was used to initiate the reactions which were quenched with 6% acetic acid (40 μL). ACC catalyzed malonyl-CoA formation was detected by LC/MS/MS using a Cohesive Technologies LX Series multiplex LC/MSIMS system configured with four binary pumps (Agilent Technologies; Palo Alto, Calif.), a dual arm autosampler (Leap Technologies; Cary, N.C.), and one Quattro Micro triple quadrupole mass spectrometer (Waters, Milford, Mass.), all run by Aria Software version 1.5 (Cohesive Technologies; Franklin, Mass.). Four samples were injected (20 μL) onto four Phenosphere NEXT C18 30×2 mm 5 μm columns (Phenomenex; Torrance, Calif.), eluted by four separate pumps, running identical gradients, through a column switching manifold with the one outlet fitted to the electrospray (ESI) source. Malonyl-CoA was eluted with 5 mM ammonium acetate, pH 4.5 (Buffer A) and 100% acetonitrile (Buffer B) via a step gradient. Argon was used as the collision gas and the following species were monitored via MRM detection: malonyl-CoA (853.8>346.9), internal standard (A: [^13C3]-malonyl-CoA, 857>350). The lower limit of detection is 0.3 uM for malonyl-CoA in this assay.

T1 sequence (O00763 144-2458): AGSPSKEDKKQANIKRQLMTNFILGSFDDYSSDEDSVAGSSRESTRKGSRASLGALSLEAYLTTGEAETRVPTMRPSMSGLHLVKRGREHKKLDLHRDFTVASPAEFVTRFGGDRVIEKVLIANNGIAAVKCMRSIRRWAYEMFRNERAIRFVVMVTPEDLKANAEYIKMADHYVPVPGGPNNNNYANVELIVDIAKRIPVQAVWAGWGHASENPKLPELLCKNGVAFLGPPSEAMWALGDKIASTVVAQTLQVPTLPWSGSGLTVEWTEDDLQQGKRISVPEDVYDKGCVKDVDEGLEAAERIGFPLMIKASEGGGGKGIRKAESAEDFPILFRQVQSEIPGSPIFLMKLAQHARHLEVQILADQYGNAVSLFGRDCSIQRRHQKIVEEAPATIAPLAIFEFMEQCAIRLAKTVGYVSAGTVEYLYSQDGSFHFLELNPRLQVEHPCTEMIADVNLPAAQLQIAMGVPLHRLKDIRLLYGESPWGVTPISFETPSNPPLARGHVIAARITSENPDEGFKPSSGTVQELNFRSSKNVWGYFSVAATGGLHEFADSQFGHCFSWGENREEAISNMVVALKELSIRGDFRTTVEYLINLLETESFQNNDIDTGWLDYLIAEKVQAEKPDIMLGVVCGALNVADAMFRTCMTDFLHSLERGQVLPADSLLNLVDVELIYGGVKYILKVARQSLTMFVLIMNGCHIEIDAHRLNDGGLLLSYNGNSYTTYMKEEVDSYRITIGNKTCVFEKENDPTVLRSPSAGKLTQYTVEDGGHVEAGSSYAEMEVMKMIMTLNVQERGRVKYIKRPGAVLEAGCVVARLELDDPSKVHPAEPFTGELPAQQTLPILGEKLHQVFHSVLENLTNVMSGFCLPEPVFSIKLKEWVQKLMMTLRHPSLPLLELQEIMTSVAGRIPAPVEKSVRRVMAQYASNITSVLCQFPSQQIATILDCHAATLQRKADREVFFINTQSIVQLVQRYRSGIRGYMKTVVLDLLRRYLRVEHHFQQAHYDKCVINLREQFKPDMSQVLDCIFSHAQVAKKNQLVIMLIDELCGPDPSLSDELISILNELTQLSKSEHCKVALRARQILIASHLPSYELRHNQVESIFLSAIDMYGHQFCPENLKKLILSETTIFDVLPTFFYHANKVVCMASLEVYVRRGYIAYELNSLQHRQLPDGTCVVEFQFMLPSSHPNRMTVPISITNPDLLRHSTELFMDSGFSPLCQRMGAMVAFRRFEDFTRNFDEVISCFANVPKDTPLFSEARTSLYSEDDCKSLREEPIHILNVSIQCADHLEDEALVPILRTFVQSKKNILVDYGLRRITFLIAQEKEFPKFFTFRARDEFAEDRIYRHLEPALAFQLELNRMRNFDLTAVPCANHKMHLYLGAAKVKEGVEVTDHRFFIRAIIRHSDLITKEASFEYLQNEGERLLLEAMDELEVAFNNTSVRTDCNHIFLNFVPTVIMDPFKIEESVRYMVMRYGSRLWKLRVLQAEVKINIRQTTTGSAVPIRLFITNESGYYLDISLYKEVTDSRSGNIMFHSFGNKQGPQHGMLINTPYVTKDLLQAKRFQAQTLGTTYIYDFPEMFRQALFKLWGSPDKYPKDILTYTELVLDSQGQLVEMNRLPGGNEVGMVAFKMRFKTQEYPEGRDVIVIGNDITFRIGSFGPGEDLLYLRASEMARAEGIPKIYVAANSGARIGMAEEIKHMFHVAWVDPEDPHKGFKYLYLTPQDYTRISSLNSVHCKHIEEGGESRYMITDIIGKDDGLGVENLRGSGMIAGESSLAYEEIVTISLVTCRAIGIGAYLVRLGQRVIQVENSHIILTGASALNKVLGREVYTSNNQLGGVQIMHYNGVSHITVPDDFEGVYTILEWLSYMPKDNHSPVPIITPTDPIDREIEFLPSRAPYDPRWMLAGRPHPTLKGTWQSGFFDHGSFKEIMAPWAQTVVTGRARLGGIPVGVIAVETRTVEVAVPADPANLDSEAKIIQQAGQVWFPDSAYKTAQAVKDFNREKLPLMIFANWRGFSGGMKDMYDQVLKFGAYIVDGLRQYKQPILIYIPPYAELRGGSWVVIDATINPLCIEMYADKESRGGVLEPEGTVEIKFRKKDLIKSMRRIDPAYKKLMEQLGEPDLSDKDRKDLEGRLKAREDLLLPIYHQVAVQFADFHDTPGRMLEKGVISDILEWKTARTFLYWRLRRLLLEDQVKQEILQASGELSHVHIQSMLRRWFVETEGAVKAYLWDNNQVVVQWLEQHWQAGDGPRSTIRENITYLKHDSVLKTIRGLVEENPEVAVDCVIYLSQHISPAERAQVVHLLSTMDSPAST

Row | Structure (SMILES) | pIC50
1 | COC(=O)C1CN(c2ccc3cc(S(=O)(=O)N[C@H]4CC[C@H](C(=O)N[C@H](C)c5ccc(F)cc5)CC4)ccc3n2)CCN1 (stereo partly drawn) [Example 242, methyl 4-(6-(N-((1R,4r)-4-((R)-1-(4-fluorophenyl)ethylcarbamoyl)cyclohexyl)sulfamoyl)quinolin-2-yl)piperazine-2-carboxylate] | 6.71
2 | Cc1ccccc1-c1cc2ccc(S(=O)(=O)N[C@H]3CC[C@H](C(=O)N4CCNC[C@@H]4c4ccccc4)CC3)cc2[nH]1 [Example 325, N-((1S,4r)-4-((S)-2-phenylpiperazine-1-carbonyl)cyclohexyl)-2-o-tolyl-1H-indole-6-sulfonamide] | > 8.00
3 | CN1CCN(C(=O)[C@H]2CC[C@H](NS(=O)(=O)c3cnc4ccccc4c3)CC2)C(c2ccccc2)C1 (stereo partly shown) [Example 47, N-((1r,4r)-4-(4-methyl-2-phenylpiperazine-1-carbonyl)cyclohexyl)quinoline-3-sulfonamide] | 5.37
4 | C[C@@H](NC(=O)[C@H]1CC[C@H](NS(=O)(=O)c2cnc3c(c2)NCCN3)CC1)c1ccc(F)cc1 [Example 33, (1r,4R)—N—((R)-1-(4-fluorophenyl)ethyl)-4-(1,2,3,4-tetrahydropyrido[3,2-b]pyrazine-7-sulfonamido)cyclohexanecarboxamide] | 6.85
5 | O=C([C@H]1CC[C@H](NS(=O)(=O)c2ccc3c(c2)CCCN3)CC1)N1CCOCC1c1ccccc1 (stereo partly shown) [Example 177, N-((1r,4r)-4-(3-phenylmorpholine-4-carbonyl)cyclohexyl)-1,2,3,4-tetrahydroquinoline-6-sulfonamide] | 7.05
6 | CC(C)CCC(=O)N1CCNc2ncc(S(=O)(=O)N[C@H]3CC[C@H](C(=O)N[C@H](C)c4ccc(F)cc4)CC3)cc21 [Example 220, (1r,4R)-N-((R)-1-(4-fluorophenyl)ethyl)-4-(1-(4-methylpentanoyl)-1,2,3,4-tetrahydropyrido[3,2-b]pyrazine-7-sulfonamido)cyclohexanecarboxamide] | 6.06
7 | C[C@@H](NC(=O)C12CC3CC(C1)C(NS(=O)(=O)c1cnc4c(c1)NCCN4)C(C3)C2)c1ccc(F)cc1 (stereo partly drawn) [Example 262, 4-(1,2,3,4-Tetrahydro-pyrido[2,3-b]pyrazine-7-sulfonylamino)-adamantane-1-carboxylic acid [(R)-1-(4-fluoro-phenyl)-ethyl]-amide] | 7.70
8 | CC(C)(C)OC(=O)N1CCN(C(=O)[C@H]2CC[C@H](NS(=O)(=O)c3ccc4c(c3)oc3ccccc34)CC2)[C@@H](c2ccccc2)C1 [Example 263, (S)-tert-butyl 4-((1r,4S)-4-(dibenzo[b,d]furan-3-sulfonamido)cyclohexanecarbonyl)-3-phenylpiperazine-1-carboxylate] | 7.52
9 | Cc1c(Cl)[nH]c2ccc(S(=O)(=O)N[C@H]3CC[C@H](C(=O)N[C@H](C)c4ccc(F)cc4)CC3)cc12 [Example 124, (1r,4R)-4-(2-chloro-3-methyl-1H-indole-5-sulfonamido)-N-((R)-1-(4-fluorophenyl)ethyl)cyclohexanecarboxamide] | 7.49
10 | C[C@@H](NC(=O)[C@H]1CC[C@H](NS(=O)(=O)c2ccc3nc(-c4ccccc4)sc3c2)CC1)c1ccc(F)cc1 [Example 120, (1r,4R)-N-((R)-1-(4-fluorophenyl)ethyl)-4-(2-phenylbenzo[d]thiazole-6-sulfonamido)cyclohexanecarboxamide] | 7.47
11 | C[C@@H](NC(=O)[C@H]1CC[C@H](NS(=O)(=O)c2cnc3c(c2)N(C(=O)COCc2ccccc2)CCN3)CC1)c1ccc(F)cc1 [Example 233, (1r,4R)-4-(1-(2-(benzyloxy)acetyl)-1,2,3,4-tetrahydropyrido[3,2-b]pyrazine-7-sulfonamido)-N-((R)-1-(4-fluorophenyl)ethyl)cyclohexanecarboxamide] | 6.02
12 | O=C(C1CCC(NS(=O)(=O)c2ccc3cc(-c4ccccc4C(F)(F)F)[nH]c3c2)CC1)N1CCNC(C(F)(F)F)C1 (stereo not shown) [Example 334, 2-(2-(trifluoromethyl)phenyl)-N-((1r,4r)-4-(3-(trifluoromethyl)piperazine-1-carbonyl)cyclohexyl)-1H-indole-6-sulfonamide] | 5.85
13 | Cc1cc(CO)ccc1-c1cc2ccc(S(=O)(=O)N[C@H]3CC[C@H](C(=O)N4CCNCC4)CC3)cc2[nH]1 [Example 312, 2-(4-(hydroxymethyl)-2-methylphenyl)-N-((1r,4r)-4-(piperazine-1-carbonyl)cyclohexyl)-1H-indole-6-sulfonamide] | 6.22
14 | Cc1c(C(F)(F)F)nc2cccc(S(=O)(=O)N[C@H]3CC[C@H](C(=O)N[C@H](C)c4ccc(F)cc4)CC3)n12 [Example 63, (1r,4R)-N-((R)-1-(4-fluorophenyl)ethyl)-4-(3-methyl-2-(trifluoromethyl)imidazo[1,2-a]pyridine-5-sulfonamido)cyclohexanecarboxamide] | < 4.46
15 | C[C@@H](NC(=O)[C@H]1CC[C@H](NS(=O)(=O)c2ccc3[nH]c([C@@H]4CC(F)(F)CN4)nc3c2)CC1)c1ccc(F)cc1 [Example 118, (1r,4R)-4-(2-((S)-4,4-difluoropyrrolidin-2-yl)-1H-benzo[d]imidazole-5-sulfonamido)-N-((R)-1-(4-fluorophenyl)ethyl)cyclohexanecarboxamide] | 5.76
16 | O=C([C@H]1CC[C@H](NS(=O)(=O)c2cnc3c(c2)NCCS3)CC1)N1CCNC[C@@H]1c1ccccc1 [Example 192, N-((1S,4r)-4-((S)-2-phenylpiperazine-1-carbonyl)cyclohexyl)-2,3-dihydro-1H-pyrido[2,3-b][1,4]thiazine-7-sulfonamide] | 7.82

Results, then the compound that gave them:

Row | pIC50 | Structure (SMILES)
17 | 5.69 | O=C([C@H]1CC[C@H](NS(=O)(=O)c2ccc3[nH]c(-c4ccccc4)nc3c2)CC1)N1CCN(CC2CCCCC2)CC1 [Example 627, N-((1r,4r)-4-(4-(cyclohexylmethyl)piperazine-1-carbonyl)cyclohexyl)-2-phenyl-1H-benzo[d]imidazole-5-sulfonamide]
18 | > 8.00 | CC(O)c1ccc(-c2nc3cc(S(=O)(=O)N[C@H]4CC[C@H](C(=O)N[C@H](C)c5ccccc5)CC4)ccc3[nH]2)cc1 (stereo partly drawn) [Example 573, (1r,4R)-4-(2-(4-(1-hydroxyethyl)phenyl)-1H-benzo[d]imidazole-5-sulfonamido)-N-((R)-1-phenylethyl)cyclohexanecarboxamide]
19 | 6.07 | CC(C)OC(=O)c1ccc(NS(=O)(=O)c2ccc3[nH]c(Nc4ccccc4F)nc3c2)cc1 [Example 546, isopropyl 4-(2-(2-fluorophenylamino)-1H-benzo[d]imidazole-5-sulfonamido)benzoate]
20 | 6.62 | CC(C)OC(=O)c1ccc(NS(=O)(=O)c2ccc3[nH]c(Nc4ccccc4)nc3c2)cc1 [Example 521, isopropyl 4-(2-(phenylamino)-1H-benzo[d]imidazole-5-sulfonamido)benzoate]
21 | 5.76 | CC(C)(C)c1nnc([C@H]2CC[C@H](NS(=O)(=O)c3ccc4[nH]c(-c5cccc(C(=O)O)c5)nc4c3)CC2)o1 [Example 610, 3-(5-(N-((1r,4r)-4-(5-tert-butyl-1,3,4-oxadiazol-2-yl)cyclohexyl)sulfamoyl)-1H-benzo[d]imidazol-2-yl)benzoic acid]
22 | 6.59 | CCOC(=O)C1CCCCN1C(=O)[C@H]1CC[C@H](NS(=O)(=O)c2ccc3cc(-c4ccc(COC)cc4)[nH]c3c2)CC1 (stereo partly shown) [Example 340, ethyl 1-((1r,4r)-4-(2-(4-(methoxymethyl)phenyl)-1H-indole-6-sulfonamido)cyclohexanecarbonyl)piperidine-2-carboxylate]
23 | 6.60 | CC(C)(NC(=O)[C@H]1CC[C@H](NS(=O)(=O)c2ccc3[nH]c(-c4ccccc4)nc3c2)CC1)c1ccccc1 [Example 582, (1r,4r)-4-(2-phenyl-1H-benzo[d]imidazole-5-sulfonamido)-N-(2-phenylpropan-2-yl)cyclohexanecarboxamide]
24 | 6.25 | O=C([C@H]1CC[C@H](NS(=O)(=O)c2ccc3[nH]c(-c4ccccc4)nc3c2)CC1)N1Cc2ccccc2C1 [Example 623, N-((1r,4r)-4-(isoindoline-2-carbonyl)cyclohexyl)-2-phenyl-1H-benzo[d]imidazole-5-sulfonamide]
25 | < 4.46 | Cn1ccc2cc(S(=O)(=O)N[C@H]3CC[C@H](C(=O)N[C@@H](CO)c4ccccc4)CC3)ccc21 [Example 671, (1r,4R)-N-((R)-2-hydroxy-1-phenylethyl)-4-(1-methyl-1H-indole-5-sulfonamido)cyclohexanecarboxamide]
